Earlier results, collected in US10668130B2, “Formulation for targeting cancer in humans and canines using chlorotoxin” (priority 2017, dated 2020).

Experiments:
[1] = system: outwardly rectifying Cl— channels; details: planar lipid bilayers
[2] = system: volume-regulated Cl— channels; details: sub-micromolar concentrations
[3] = system: Ca2+-activated Cl— channels; details: sub-micromolar concentrations
CFTR Cl— channels = CFTR Cl— channels (Homo sapiens, UniProt P13569); details: sub-micromolar concentrations
CFTR Cl— channels, sequence (P13569 whole entry): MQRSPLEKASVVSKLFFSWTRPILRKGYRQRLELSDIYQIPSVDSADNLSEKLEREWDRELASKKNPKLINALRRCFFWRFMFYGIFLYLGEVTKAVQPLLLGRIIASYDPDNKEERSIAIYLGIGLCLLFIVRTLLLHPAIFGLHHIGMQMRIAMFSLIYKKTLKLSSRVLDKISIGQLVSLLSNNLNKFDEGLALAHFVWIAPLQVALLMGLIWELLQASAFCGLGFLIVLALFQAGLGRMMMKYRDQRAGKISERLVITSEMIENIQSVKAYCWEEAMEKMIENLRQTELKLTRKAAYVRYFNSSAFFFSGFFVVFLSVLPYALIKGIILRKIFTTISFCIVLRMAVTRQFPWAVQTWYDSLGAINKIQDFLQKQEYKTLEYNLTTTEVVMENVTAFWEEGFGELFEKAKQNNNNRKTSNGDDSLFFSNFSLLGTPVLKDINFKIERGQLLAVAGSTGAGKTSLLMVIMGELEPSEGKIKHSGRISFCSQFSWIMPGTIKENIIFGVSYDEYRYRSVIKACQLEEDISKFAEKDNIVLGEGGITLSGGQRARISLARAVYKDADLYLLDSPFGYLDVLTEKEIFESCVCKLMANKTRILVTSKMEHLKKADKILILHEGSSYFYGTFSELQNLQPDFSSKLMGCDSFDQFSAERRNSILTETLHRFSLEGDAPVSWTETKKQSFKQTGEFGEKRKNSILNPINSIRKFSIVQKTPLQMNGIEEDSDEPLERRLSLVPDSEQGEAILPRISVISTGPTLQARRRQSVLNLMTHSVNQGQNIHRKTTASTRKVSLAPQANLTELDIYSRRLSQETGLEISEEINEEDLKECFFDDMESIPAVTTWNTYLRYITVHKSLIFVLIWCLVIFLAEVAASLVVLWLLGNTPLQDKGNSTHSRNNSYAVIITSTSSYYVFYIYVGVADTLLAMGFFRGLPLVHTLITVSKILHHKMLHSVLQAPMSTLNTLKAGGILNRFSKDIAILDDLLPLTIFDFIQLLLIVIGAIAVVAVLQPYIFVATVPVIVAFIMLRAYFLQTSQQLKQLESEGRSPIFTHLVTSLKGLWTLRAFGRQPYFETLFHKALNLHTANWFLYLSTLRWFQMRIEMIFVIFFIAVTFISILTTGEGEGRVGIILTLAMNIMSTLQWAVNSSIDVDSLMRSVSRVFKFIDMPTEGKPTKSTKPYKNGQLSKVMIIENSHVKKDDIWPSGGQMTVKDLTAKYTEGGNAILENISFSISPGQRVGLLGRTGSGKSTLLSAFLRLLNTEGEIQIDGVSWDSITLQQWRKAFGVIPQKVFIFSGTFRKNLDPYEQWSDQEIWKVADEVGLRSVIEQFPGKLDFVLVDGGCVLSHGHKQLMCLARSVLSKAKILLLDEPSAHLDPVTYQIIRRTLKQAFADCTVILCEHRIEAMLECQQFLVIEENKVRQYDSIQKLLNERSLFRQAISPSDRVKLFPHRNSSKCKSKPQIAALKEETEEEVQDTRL

chlorotoxin
effect on outwardly rectifying Cl— channels [1]: inhibited | effect on volume-regulated Cl— channels [2]: without effect | effect on Ca2+-activated Cl— channels [3]: without effect | effect on CFTR Cl— channels (CFTR Cl— channels): without effect
